From ChEMBL document CHEMBL6109134, “Discovery of AMG 193, an MTA-Cooperative PRMT5 Inhibitor for the Treatment of MTAP-Deleted Cancers” (J Med Chem, 2025)
In brackets after ≈: the same amount, converted by molar mass.

What was measured:
[1] = Metabolic stability in dog hepatocytes assessed as intrinsic clearance measured per 10^6 cells; assay type: ADME, cell-based, Canis lupus familiaris, Hepatocyte; details: read-out: CLH
[2] = target: Protein arginine N-methyltransferase 5 (Homo sapiens) (UniProt O14744); assay: In vivo inhibition of PRMT5 in athymic nude mouse xenografted with MTAP-deleted human HCT-116 cells assessed as decrease in SDMA level in tumor at 3 mg/kg, po administered once daily for 4 days and measured 4 hrs post last dose by ELISA relative to control; assay type: functional, organism-based; details: time 4.0 day
Protein arginine N-methyltransferase 5 (Homo sapiens), sequence (O14744 whole entry): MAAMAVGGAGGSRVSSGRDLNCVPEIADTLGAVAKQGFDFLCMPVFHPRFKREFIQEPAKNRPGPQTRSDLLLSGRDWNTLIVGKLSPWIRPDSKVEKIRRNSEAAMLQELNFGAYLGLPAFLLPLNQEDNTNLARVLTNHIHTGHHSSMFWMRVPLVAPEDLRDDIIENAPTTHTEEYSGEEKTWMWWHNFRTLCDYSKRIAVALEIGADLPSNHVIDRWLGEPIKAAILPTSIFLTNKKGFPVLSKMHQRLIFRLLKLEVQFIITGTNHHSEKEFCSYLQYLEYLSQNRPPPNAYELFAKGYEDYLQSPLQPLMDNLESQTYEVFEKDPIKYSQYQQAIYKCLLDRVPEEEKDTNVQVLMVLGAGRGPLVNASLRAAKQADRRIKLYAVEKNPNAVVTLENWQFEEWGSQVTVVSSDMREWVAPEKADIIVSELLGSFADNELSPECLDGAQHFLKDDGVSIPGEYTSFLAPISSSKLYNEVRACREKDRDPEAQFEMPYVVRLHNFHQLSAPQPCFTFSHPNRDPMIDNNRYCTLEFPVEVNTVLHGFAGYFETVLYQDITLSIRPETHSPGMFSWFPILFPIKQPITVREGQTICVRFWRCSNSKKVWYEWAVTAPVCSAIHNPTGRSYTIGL

[3] = Drug uptake in plasma of athymic nude mouse xenografted with MTAP-deleted human BXPC-3 cells at 10 to 100 mg/kg, po administered once daily for 26 days and measured 24 hrs post last dose by LC-SRM/MS analysis; assay type: ADME, organism-based; details: in vivo, 648 h, dose 10-100 mg/kg, time 27 day
HCT-116 [4] = assay: Antitumor activity against MTAP-deleted human HCT-116 cells xenografted in female athymic nude mouse model assessed as tumor growth inhibition at 3 mg/kg, po administered once daily for 14 days relative to control; assay type: functional; details: HCT-116, 336 h, time 14 day, read-out: TGI
[5] = target: Protein arginine N-methyltransferase 5 (Homo sapiens) (UniProt O14744); assay: Selectivity ratio of dissociation rate for binding affinity to PRMT5 (unknown origin) in presence of SAM to dissociation rate for binding affinity to PRMT5 (unknown origin) in presence of MTA
[6] = target: Voltage-gated inwardly rectifying potassium channel KCNH2 (Homo sapiens, UniProt Q12809); assay: Inhibition of human ERG by QPatch clamp method
Voltage-gated inwardly rectifying potassium channel KCNH2, sequence (Q12809 whole entry): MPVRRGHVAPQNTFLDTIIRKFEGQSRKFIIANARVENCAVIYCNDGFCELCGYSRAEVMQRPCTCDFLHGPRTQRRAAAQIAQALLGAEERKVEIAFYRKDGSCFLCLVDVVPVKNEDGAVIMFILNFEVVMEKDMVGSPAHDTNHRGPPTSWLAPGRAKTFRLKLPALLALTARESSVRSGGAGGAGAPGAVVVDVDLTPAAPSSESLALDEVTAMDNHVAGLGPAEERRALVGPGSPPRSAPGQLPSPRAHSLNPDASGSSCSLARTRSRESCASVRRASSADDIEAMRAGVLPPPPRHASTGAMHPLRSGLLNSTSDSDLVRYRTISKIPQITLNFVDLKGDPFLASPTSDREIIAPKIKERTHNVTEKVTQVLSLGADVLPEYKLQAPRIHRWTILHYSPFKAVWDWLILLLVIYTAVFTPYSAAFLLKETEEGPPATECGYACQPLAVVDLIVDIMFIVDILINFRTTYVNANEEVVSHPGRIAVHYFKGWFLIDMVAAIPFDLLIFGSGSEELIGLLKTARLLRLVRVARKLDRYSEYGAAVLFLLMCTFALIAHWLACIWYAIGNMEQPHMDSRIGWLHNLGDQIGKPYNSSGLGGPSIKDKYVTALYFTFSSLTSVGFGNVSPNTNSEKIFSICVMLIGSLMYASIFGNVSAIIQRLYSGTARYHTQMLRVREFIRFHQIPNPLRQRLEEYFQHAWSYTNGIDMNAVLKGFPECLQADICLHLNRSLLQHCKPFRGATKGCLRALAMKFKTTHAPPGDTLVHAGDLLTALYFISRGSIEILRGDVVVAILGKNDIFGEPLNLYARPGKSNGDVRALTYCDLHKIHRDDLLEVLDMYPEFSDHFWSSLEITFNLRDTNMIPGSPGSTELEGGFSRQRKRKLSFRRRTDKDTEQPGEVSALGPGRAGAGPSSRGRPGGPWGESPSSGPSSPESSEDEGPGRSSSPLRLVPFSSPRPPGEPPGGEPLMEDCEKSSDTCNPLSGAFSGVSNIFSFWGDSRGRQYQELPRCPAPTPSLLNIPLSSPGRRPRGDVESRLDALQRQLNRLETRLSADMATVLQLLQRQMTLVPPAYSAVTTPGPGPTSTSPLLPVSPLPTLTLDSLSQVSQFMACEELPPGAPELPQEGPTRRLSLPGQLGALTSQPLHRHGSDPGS

[7] = Metabolic stability in human hepatocytes assessed as intrinsic clearance measured per 10^6 cells; assay type: ADME, cell-based, Hepatocyte; details: read-out: CLH
[8] = target: Protein arginine N-methyltransferase 5 (Homo sapiens) (UniProt O14744); assay: In vivo inhibition of PRMT5 in female athymic nude mouse xenografted with MTAP-deleted human U-87 MG cells assessed as decrease in SDMA level in tumor at 100 mg/kg, po administered once daily for 14 days and measured 2 to 8 hrs post last dose by ELISA relative to control; assay type: functional, organism-based; details: time 338-344 hrs
HCT-116 [9] = assay: Antitumor activity against MTAP-deleted human HCT-116 cells xenografted in female athymic nude mouse model assessed as tumor growth inhibition at 30 mg/kg, po administered once daily for 14 days relative to control; assay type: functional; details: HCT-116, 336 h, time 14 day, read-out: TGI
[10] = Mutagenicity in Salmonella typhimurium by Ames test; assay type: toxicity; details: salmonella enterica subsp. enterica serovar typhimurium
[11] = Unbound CSF-to-plasma concentration ratio in male Sprague-Dawley rat at 75 mg/kg, po administered as single dose; assay type: ADME, organism-based
HCT-116 [12] = assay: Antitumor activity against MTAP-deleted human HCT-116 cells xenografted in female athymic nude mouse model assessed as tumor growth inhibition at 100 mg/kg, po administered once daily for 14 days relative to control; assay type: functional; details: HCT-116, 336 h, time 14 day, read-out: TGI
[13] = Unbound brain-to-plasma concentration ratio in female Sprague-Dawley rat at 75 mg/kg, po administered as single dose; assay type: ADME, organism-based; details: read-out: K(p,uu,brain)
[14] = Unbound clearance in Sprague-Dawley rat at 0.5 mg/kg, iv; assay type: ADME, organism-based; details: in vivo
[15] = target: T1, Broad substrate specificity ATP-binding cassette transporter ABCG2 (Homo sapiens, UniProt Q9UNQ0); assay: Effect on BCRP (unknown origin)-mediated transport up to 10 uM
T1 sequence (Q9UNQ0 whole entry): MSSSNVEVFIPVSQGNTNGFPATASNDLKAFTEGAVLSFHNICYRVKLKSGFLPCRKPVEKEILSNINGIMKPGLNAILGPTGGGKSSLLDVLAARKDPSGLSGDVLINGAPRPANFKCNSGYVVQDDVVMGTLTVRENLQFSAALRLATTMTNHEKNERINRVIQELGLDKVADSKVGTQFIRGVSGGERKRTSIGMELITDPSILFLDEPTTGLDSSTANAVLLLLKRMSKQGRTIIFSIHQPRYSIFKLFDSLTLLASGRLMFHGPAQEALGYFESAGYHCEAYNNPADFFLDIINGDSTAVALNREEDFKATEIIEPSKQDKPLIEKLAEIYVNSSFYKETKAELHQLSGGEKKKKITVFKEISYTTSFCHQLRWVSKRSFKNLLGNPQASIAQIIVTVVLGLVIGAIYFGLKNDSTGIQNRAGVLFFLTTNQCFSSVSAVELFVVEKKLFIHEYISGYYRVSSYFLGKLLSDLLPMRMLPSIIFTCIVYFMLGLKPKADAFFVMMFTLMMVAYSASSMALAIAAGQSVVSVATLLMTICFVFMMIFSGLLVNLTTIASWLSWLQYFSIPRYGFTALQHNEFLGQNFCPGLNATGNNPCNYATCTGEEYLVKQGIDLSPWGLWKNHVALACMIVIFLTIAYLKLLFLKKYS

[16] = Unbound CSF-to-plasma concentration ratio in female Sprague-Dawley rat at 25 mg/kg, po administered as single dose; assay type: ADME, organism-based
[17] = Solubility of compound in PBS buffer at pH 7.4
[18] = Antitumor activity against MTAP-deleted human U-87 MG cells xenografted in female athymic nude mouse model assessed as tumor growth inhibition at 300 mg/kg, po administered once daily for 14 days and measured 24 hrs post last dose relative to control; assay type: functional, U-87MG ATCC; details: 360 h, time 15 day, read-out: TGI
[19] = Metabolic stability in human liver microsomes assessed as intrinsic clearance at 0.5 uM incubated for 40 mins in presence of NADPH; assay type: ADME, Microsome; details: read-out: CLH
BXPC-3 = assay: Antitumor activity against MTAP-deleted human BXPC-3 cells xenografted in athymic nude mouse model assessed as tumor growth inhibition at 10 mg/kg, po administered once daily for 26 days and measured 24 hrs post last dose relative to control; assay type: functional; details: BXPC-3, 648 h, time 27 day, read-out: TGI
[20] = target: Protein arginine N-methyltransferase 5 (Homo sapiens) (UniProt O14744); assay: In vivo inhibition of PRMT5 in athymic nude mouse xenografted with MTAP-deleted human HCT-116 cells assessed as decrease in SDMA level in tumor at 10 mg/kg, po administered once daily for 4 days and measured 4 hrs post last dose by ELISA relative to control; assay type: functional, organism-based; details: time 4.0 day
[21] = Unbound clearance in Beagle dog at 0.5 mg/kg, iv; assay type: ADME, organism-based, Canis lupus familiaris; details: in vivo
[22] = target: Protein arginine N-methyltransferase 5 (Homo sapiens) (UniProt O14744); assay: In vivo inhibition of PRMT5 in female athymic nude mouse xenografted with MTAP-deleted human U-87 MG cells assessed as decrease in SDMA level in tumor at 10 mg/kg, po administered once daily for 14 days and measured 2 to 8 hrs post last dose by ELISA relative to control; assay type: functional, organism-based; details: time 338-344 hrs
[23] = target: Protein arginine N-methyltransferase 5 (Homo sapiens) (UniProt O14744); assay: In vivo inhibition of PRMT5 in athymic nude mouse xenografted with MTAP-deleted human HCT-116 cells assessed as decrease in SDMA level in tumor at 100 mg/kg, po administered once daily for 4 days and measured 4 hrs post last dose by ELISA relative to control; assay type: functional, organism-based; details: time 4.0 day
[24] = Antitumor activity against MTAP-deleted human U-87 MG cells xenografted in female athymic nude mouse model assessed as tumor growth inhibition at 10 mg/kg, po administered once daily for 14 days and measured 24 hrs post last dose relative to control; assay type: functional, U-87MG ATCC; details: 360 h, time 15 day, read-out: TGI

Compound: Nc1nc2cnc(C(=O)N3CCOC[C@@H]3c3ccc(C(F)(F)F)cc3)cc2c2c1COC2
- hepatocyte CLint [1]: 5 µL/min/1e6 cells
- inhibition [2]: 69%
- Drug uptake [3]: Active
- inhibition in vivo at 3 mg/kg (HCT-116 [4]): 54%
- Selectivity ratio [5]: 60
- IC50 [6]: > 30 µM
- hepatocyte CLint [7]: 6 µL/min/1e6 cells
- inhibition [8]: 83%
- inhibition in vivo at 30 mg/kg (HCT-116 [9]): 74%
- Activity [10]: Non-toxic
- Kp uu [11]: 0.13
- inhibition in vivo at 100 mg/kg (HCT-116 [12]): 87%
- Kp uu [13]: 0.12
- CL free [14]: 283 mL/min/kg
- Activity [15]: Not_active
- Kp uu [16]: 0.2
- solubility [17]: 257 µM (≈ 114 µg/mL)
- inhibition in vivo at 300 mg/kg [18]: 88%
- microsomal CLint at 0.5 µM [19]: 24 µL/min/mg
- inhibition in vivo at 10 mg/kg (BXPC-3): 19%
- inhibition [20]: 73%
- CL free [21]: 50 mL/min/kg
- inhibition [22]: 68%
- inhibition [23]: 71%
- inhibition in vivo at 10 mg/kg [24]: 42%
